O=C1Cc2cc(F)ccc2N1
solubility (mole fraction)
Settings | 278.15 K | 283.15 K | 288.15 K | 293.15 K | 298.15 K | 303.15 K | 308.15 K | 313.15 K | 318.15 K | 323.15 K
in DMF | 0.226 | 0.239 | 0.253 | 0.27 | 0.289 | 0.309 | 0.331 | 0.357 | 0.384 | 0.419
in THF | 0.0838 | 0.0938 | 0.104 | 0.115 | 0.129 | 0.144 | 0.162 | 0.183 | 0.209 | 0.237
in acetone | 0.0551 | 0.0618 | 0.0678 | 0.0764 | 0.085 | 0.096 | 0.108 | 0.123 | 0.14 | 0.16
in acetonitrile | 0.02 | 0.0227 | 0.0261 | 0.03 | 0.0344 | 0.0399 | 0.0463 | 0.0537 | 0.0632 | 0.0748
in ethyl acetate | 0.0149 | 0.0165 | 0.0185 | 0.0206 | 0.0234 | 0.0265 | 0.03 | 0.0343 | 0.0394 | 0.0459
in isopropanol | 0.0197 | 0.0225 | 0.0263 | 0.0309 | 0.0367 | 0.0436 | 0.0506 | 0.0601 | 0.0717 | 0.0857
in methanol | 0.0247 | 0.0296 | 0.0358 | 0.0422 | 0.0504 | 0.0594 | 0.0704 | 0.0841 | 0.0998 | 0.12
in n-hexane | 0.000387 | 0.000492 | 0.000623 | 0.000784 | 0.000984 | 0.00125 | 0.00153 | 0.00196 | 0.00247 | 0.00311
in n-propanol | 0.0293 | 0.0336 | 0.0388 | 0.0445 | 0.0513 | 0.0598 | 0.0688 | 0.0798 | 0.093 | 0.11

Reference: BigSolDB 2.1
